The values below come from article PMC5889410, “Design and Biological Evaluation of Antifouling Dihydrostilbene Oxime Hybrids” (Marine Biotechnology (New York, N.y.), 2018).

For data set [1], the system named is Halomonas aquamarina. Briefly: Bacterial adhesion assay (crystal violet, OD 595 nm). The settings on record: Vreelandella aquamarina, 48 h incubation, 10–0.01 μg/mL tested, read-out: MIC against the adhesion of marine bacteria, H.a. The class given is cell-based. From the text:
(§1) Cyprid larvae of B. improvisus were reared in a laboratory cultivating system at Tjärnö Marine Biological Laboratory, University of Gothenburg, Sweden, as previously described by Berntsson et al. ([2000]). Four pure, but non-axenic, marine microalgae (obtained from Algobank, Caen, France) and 10 marine bacterial strains were used (Table 1) as representative microfoulers. These strains represent fouling species encountered in both estuarine and marine environments (Moodie et al. [2017b]). The bacteria were grown at 26 °C in a marine medium, composed of 0.5% peptone (neutralized bacteriological peptone, Oxoid Ltd.) in filtered (Whatman 1001–270, pore size 11 μm) natural seawater. Microalgae were grown and maintained at 22 °C in F/2 medium.
(§2) Bacterial strain adhesion and growth were determined according to the methods of Thabard et al. ([2011]). Bacterial suspensions (100-μL aliquots, 2 × 10^8 colony forming units/mL) were aseptically added to the compound containing microplate wells (10–0.01 μg/mL), and the plates were incubated for 48 h at 26 °C. Media only was used as a blank. Bacterial growth was monitored spectroscopically at 630 nm. The minimal inhibitory concentration (MIC) for bacterial growth was defined as the lowest concentration which results in a decrease in OD. After 48-h incubation time, the bacterial adhesion assay was conducted by emptying the wells and rinsing with sterile seawater (100 μL) to remove non-attached cells, and air-drying at room temperature. The residual bacterial biofilm was stained with aqueous crystal violet (100 μL, 0.3% v/v) and the OD measured at 595 nm (Sonak and Bhosle [1995]). […] If inhibition was observed, toxicity tests were conducted. The well contents were transferred into a flask of fresh media, and growth was measured after 5 days of additional incubation. The mode of action was deemed biostatic if an increase in OD was measured at 595 nm (Moodie et al. [2017a]).

The subject of data set [2] is Vibrio aestuarianus. The description is as above. The class given is cell-based. The settings on record: 48 h, read-out: MIC against the adhesion of marine bacteria, V.a.
Source text: as §1, §2

For data set [3], the system named is Vibrio carchariae. The data set is described as above. Type of data set: cell-based. The settings on record: Vibrio harveyi, 48 h, read-out: MIC against the adhesion of marine bacteria, V.c.
Source text: as §1, §2

Data set [4] deals with Vibrio harveyi. The description is as above. The class given is cell-based. The settings on record: 48 h, read-out: MIC against the adhesion of marine bacteria, V.h.
Source text: as §1, §2

A further data set relates to marine bacteria. The data set is described as follows: Bacterial adhesion assay, whole panel of ten strains. The class given is cell-based, 10 marine bacterial strains. The conditions noted are these: tested up to 10 μg/mL, active = MIC of 10 μg/mL or below.
Source text: as §1, §2

Data set [5] relates to Halomonas aquamarina. The data set is described as follows: Bacterial growth assay (OD 630 nm). The class given is cell-based. The settings on record: Vreelandella aquamarina, 48 h incubation, 10–0.01 μg/mL tested, read-out: MIC against the growth of marine bacteria, H.a.
Source text: as §1, §2

Data set [6] relates to Pseudoalteromonas elyakovii. Briefly: Bacterial growth assay (OD 630 nm). The settings on record: 48 h incubation, 10–0.01 μg/mL tested, read-out: MIC against the growth of marine bacteria, P.e. The class given is cell-based.
Source text: as §1, §2

The next data set deals with Roseobacter litoralis. Briefly: Bacterial growth assay (OD 630 nm). The settings on record: 48 h incubation, 10–0.01 μg/mL tested, read-out: MIC against the growth of marine bacteria, R.l. Type of data set: cell-based.
Source text: as §1, §2

The next data set concerns Shewanella putrefaciens. Briefly: Bacterial growth assay (OD 630 nm). Type of data set: cell-based. The settings on record: 48 h incubation, 10–0.01 μg/mL tested, read-out: MIC against the growth of marine bacteria, S.p.
Source text: as §1, §2

In data set [7] the test system is Vibrio aestuarianus. The data set is described as follows: Bacterial growth assay (OD 630 nm). The class given is cell-based. The conditions noted are these: 48 h incubation, 10–0.01 μg/mL tested, read-out: MIC against the growth of marine bacteria, V.a.
Source text: as §1, §2

The subject of data set [8] is Vibrio carchariae. Briefly: Bacterial growth assay (OD 630 nm). Type of data set: cell-based. The conditions noted are these: Vibrio harveyi, 48 h incubation, 10–0.01 μg/mL tested, read-out: MIC against the growth of marine bacteria, V.c.
Source text: as §1, §2

For data set [9], the system named is Vibrio harveyi. Briefly: Bacterial growth assay (OD 630 nm). Type of data set: cell-based. The conditions noted are these: 48 h incubation, 10–0.01 μg/mL tested, read-out: MIC against the growth of marine bacteria, V.h.
Source text: as §1, §2

The next data set deals with Vibrio natriegens. The data set is described as follows: Bacterial growth assay (OD 630 nm). Type of data set: cell-based. The conditions noted are these: 48 h incubation, 10–0.01 μg/mL tested, read-out: MIC against the growth of marine bacteria, V.n.
Source text: as §1, §2

For a further data set, the system named is Vibrio proteolyticus. Briefly: Bacterial growth assay (OD 630 nm). Type of data set: cell-based. The settings on record: 48 h incubation, 10–0.01 μg/mL tested, read-out: MIC against the growth of marine bacteria, V.p.
Source text: as §1, §2

Another data set concerns Cylindrotheca closterium. The data set is described as follows: Microalgal growth assay (chlorophyll a). Type of data set: cell-based. The settings on record: 120 h, 5 days incubation, 10–0.01 μg/mL tested, read-out: MIC against the growth (G) of microalgae, C. closterium.
Source text: as §1
(§3) Microplates containing the compounds in ranging concentrations (10–0.01 μg/mL) were prepared from MeOH stock solutions as previously described (Trepos et al. [2014]; Moodie et al. [2017a]). Microalgal stock solutions were prepared using the chlorophyll analysis methodology of Chambers et al. ([2011]). The pretreated microplate wells were treated with 100 μL of the algal stock solutions (0.1 mg chlorophyll a/mL). The plates were then incubated for 5 days at 20 °C under constant light exposure (140 μmol m^−2 s^−1). Both microalgal adhesion and growth inhibition were measured. Growth was determined by analysis of liberated chlorophyll a after centrifugation and methanol addition. Chlorophyll a was quantified fluorometrically. MIC value for algal growth was defined as the lowest concentration yielding a decrease in chlorophyll a content. Microalgal adhesion was determined in an analogous manner where the non-attached algal cells were removed prior to methanol addition (100 μL), releasing chlorophyll a from the remaining algal biofilms. The MIC for adhesion was defined as the lowest compound concentration causing a reduction in […]. Toxicity experiments were performed in an analogous manner to those described for the bacterial assays.

In a further data set the test system is Halamphora coffeaeformis. Briefly: Microalgal growth assay (chlorophyll a). Type of data set: cell-based. The conditions noted are these: Halamphora coffeiformis, 120 h, 5 days incubation, 10–0.01 μg/mL tested, read-out: MIC against the growth (G) of microalgae, H. coffeaformis.
Source text: as §1, §3

In data set [10] the test system is Pleurochrysis roscoffensis. The data set is described as follows: Microalgal growth assay (chlorophyll a). The settings on record: Chrysotila roscoffensis, 120 h, 5 days incubation, 10–0.01 μg/mL tested, read-out: MIC against the growth (G) of microalgae, P. roscoffensis. The class given is cell-based.
Source text: as §1, §3

For the next data set, the system named is Porphyridium purpureum. The data set is described as follows: Microalgal growth assay (chlorophyll a). The class given is cell-based. The conditions noted are these: 120 h, 5 days incubation, 10–0.01 μg/mL tested, read-out: MIC against the growth (G) of microalgae, P. purpureum.
Source text: as §1, §3

The test system of data set [11] is Balanus improvisus cyprid larvae. Briefly: whole plant or invertebrate. Type of data set: in vivo.
Source text: as §1
Stock solutions of compounds in DMSO were serially diluted in untreated polystyrene Petri dishes containing 10 mL of filtered (0.2 μm) seawater, affording final concentrations ranging from 0.1 to 10 μg/mL. Freshly molted balanide cyprids (18–22) were added to each Petri dish and incubated at ambient temperature (20–25 °C) for 5 days. Cyprid metamorphosis was assessed using a dissecting microscope where the numbers of juvenile settled, free-swimming, and dead cyprids were noted. Initial compound screening was conducted at 5 μg/mL, and full IC50 determination was performed only on compounds displaying > 50% inhibition at that concentration. The IC50 was defined as the concentration preventing 50% of the cyprid settlement on the Petri dish surface. Each concentration was replicated four times (n = 4), and dishes containing 0.1% of DMSO were used as negative controls. The commercial AF agent Sea-nine™ was employed as a positive control.

Converted amounts (≈) assume the structure as drawn. Some results are limits rather than exact numbers.

Consider `COc1cc(CC(=NO)c2ccc(OC)c(OC)c2)ccc1O` [Compound 14, 1-(3,4-dimethoxyphenyl)-1-hydroxyimino-2-(3’-methoxy-4’-hydroxyphenyl)-ethane], for which the MIC in the data set on Halomonas aquamarina [1] is 10 µg/mL (≈ 31.5 µM); in the data set on Vibrio aestuarianus [2], 10 µg/mL (≈ 31.5 µM); in the data set on Vibrio carchariae [3], 10 µg/mL (≈ 31.5 µM); with Vibrio harveyi [4] it was 10 µg/mL (≈ 31.5 µM); with Halomonas aquamarina [5], greater than 10 µg/mL; in [6], greater than 10 µg/mL. Moreover, the MIC was greater than 10 µg/mL with Roseobacter litoralis; 10 µg/mL (≈ 31.5 µM) in the data set with Shewanella putrefaciens; greater than 10 µg/mL in the data set on Vibrio aestuarianus [7]; greater than 10 µg/mL with Vibrio carchariae [8]; greater than 10 µg/mL in the data set with Vibrio harveyi [9]; greater than 10 µg/mL in the data set on Vibrio natriegens. For the same molecule, the MIC is greater than 10 µg/mL in the data set on Vibrio proteolyticus; 10 µg/mL (≈ 31.5 µM) in the data set with Cylindrotheca closterium; 10 µg/mL (≈ 31.5 µM) with Halamphora coffeaeformis; 10 µg/mL (≈ 31.5 µM) in data set [10]; greater than 10 µg/mL in the data set on Porphyridium purpureum. The “MIC / activity against the adhesion of all bacteria tested” value with marine bacteria is given as “displayed inhibitory activities”. Also, the IC50 in data set [11] (Amphibalanus improvisus, 120 h, read-out: IC50 (cyprid settlement inhibition)) stood at 1 µg/mL (≈ 3.15 µM). In data set [11] (Balanus improvisus, in vivo, 5 days, 5 μg/mL), the “Toxicity (%) (dead cyprids)” value turned out to be 4.8%.
